Laboratory results as given in ChEMBL document CHEMBL4354881, “Optimization of Potent ATAD2 and CECR2 Bromodomain Inhibitors with an Atypical Binding Mode” (J Med Chem, 2020).

What was measured:
[1] = target: Chromatin remodeling regulator CECR2 (Homo sapiens, UniProt Q9BXF3); assay: Inhibition of BSP-BODIPY binding to Nanoluc-tagged CECR2 (unknown origin) expressed in HEK293 cells measured after 4 to 6 hrs by NanoBRET assay; format: cell-based
[2] = target: Bromodomain-containing protein 4 (Homo sapiens, UniProt O60885); assay: Displacement of Alexa Fluor 647-labeled ligand from BRD4 BD2 (unknown origin) measured after 30 mins by TR-FRET assay
[3] = target: Bromodomain adjacent to zinc finger domain protein 2A (Homo sapiens, UniProt Q9UIF9); assay: Binding affinity to human partial length BAZ2A (M1792 to L1905 residues) expressed in bacterial expression system by BROMOscan assay
Bromodomain adjacent to zinc finger domain protein 2A, sequence (Q9UIF9 whole entry, the tested form may be a part): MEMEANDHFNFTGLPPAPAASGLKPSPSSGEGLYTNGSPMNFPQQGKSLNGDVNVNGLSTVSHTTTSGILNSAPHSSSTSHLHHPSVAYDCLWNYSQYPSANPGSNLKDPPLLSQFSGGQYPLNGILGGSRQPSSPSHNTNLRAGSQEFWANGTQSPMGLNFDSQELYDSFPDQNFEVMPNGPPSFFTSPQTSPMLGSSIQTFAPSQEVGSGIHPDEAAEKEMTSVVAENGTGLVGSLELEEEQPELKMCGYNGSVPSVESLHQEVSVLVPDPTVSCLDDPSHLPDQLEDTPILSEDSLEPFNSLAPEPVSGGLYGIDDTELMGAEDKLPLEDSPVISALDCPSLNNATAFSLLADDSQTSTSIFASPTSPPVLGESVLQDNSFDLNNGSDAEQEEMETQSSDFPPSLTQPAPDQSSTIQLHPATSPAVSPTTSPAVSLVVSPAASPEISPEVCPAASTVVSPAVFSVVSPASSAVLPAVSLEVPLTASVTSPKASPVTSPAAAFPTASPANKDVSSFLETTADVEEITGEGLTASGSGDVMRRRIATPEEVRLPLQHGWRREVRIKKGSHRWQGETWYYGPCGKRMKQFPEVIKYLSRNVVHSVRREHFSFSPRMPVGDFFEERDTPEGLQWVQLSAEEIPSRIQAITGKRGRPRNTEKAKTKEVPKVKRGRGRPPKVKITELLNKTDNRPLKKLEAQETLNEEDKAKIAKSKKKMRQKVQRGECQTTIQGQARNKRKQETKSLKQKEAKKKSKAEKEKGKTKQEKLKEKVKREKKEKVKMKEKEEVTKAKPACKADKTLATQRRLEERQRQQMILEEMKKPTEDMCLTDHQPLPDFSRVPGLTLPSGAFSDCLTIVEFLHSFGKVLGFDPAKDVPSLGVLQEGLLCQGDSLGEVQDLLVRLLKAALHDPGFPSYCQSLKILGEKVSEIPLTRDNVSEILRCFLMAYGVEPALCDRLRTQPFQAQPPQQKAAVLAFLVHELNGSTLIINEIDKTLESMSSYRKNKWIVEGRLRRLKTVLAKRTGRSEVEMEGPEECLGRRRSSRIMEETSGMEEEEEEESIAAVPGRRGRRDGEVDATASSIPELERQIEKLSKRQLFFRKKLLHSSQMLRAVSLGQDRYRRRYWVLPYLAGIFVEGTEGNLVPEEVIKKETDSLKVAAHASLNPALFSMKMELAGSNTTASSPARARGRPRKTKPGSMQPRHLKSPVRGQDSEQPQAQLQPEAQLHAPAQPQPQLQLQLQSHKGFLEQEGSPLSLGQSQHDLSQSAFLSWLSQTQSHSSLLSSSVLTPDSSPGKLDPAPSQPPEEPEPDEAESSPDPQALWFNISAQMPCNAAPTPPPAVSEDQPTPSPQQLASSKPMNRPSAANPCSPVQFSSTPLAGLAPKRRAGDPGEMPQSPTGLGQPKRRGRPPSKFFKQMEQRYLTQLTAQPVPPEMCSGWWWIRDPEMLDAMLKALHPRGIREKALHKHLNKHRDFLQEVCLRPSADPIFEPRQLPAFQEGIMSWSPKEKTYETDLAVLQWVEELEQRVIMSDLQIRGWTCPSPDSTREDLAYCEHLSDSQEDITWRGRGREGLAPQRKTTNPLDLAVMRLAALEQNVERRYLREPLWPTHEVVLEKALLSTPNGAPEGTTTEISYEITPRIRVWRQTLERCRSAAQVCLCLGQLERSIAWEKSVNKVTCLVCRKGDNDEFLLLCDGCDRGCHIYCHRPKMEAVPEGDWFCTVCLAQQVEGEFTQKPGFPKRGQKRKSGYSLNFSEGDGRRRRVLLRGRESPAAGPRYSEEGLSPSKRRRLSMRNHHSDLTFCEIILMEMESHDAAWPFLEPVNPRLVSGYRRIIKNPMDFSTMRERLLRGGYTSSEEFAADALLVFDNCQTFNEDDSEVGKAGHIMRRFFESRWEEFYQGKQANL

[4] = target: T1, Bromodomain-containing protein 1 (Homo sapiens, UniProt O95696); assay: Binding affinity to human partial length BRD1 (E556 to A688 residues) expressed in bacterial expression system by BROMOscan assay
T1 sequence (O95696 whole entry): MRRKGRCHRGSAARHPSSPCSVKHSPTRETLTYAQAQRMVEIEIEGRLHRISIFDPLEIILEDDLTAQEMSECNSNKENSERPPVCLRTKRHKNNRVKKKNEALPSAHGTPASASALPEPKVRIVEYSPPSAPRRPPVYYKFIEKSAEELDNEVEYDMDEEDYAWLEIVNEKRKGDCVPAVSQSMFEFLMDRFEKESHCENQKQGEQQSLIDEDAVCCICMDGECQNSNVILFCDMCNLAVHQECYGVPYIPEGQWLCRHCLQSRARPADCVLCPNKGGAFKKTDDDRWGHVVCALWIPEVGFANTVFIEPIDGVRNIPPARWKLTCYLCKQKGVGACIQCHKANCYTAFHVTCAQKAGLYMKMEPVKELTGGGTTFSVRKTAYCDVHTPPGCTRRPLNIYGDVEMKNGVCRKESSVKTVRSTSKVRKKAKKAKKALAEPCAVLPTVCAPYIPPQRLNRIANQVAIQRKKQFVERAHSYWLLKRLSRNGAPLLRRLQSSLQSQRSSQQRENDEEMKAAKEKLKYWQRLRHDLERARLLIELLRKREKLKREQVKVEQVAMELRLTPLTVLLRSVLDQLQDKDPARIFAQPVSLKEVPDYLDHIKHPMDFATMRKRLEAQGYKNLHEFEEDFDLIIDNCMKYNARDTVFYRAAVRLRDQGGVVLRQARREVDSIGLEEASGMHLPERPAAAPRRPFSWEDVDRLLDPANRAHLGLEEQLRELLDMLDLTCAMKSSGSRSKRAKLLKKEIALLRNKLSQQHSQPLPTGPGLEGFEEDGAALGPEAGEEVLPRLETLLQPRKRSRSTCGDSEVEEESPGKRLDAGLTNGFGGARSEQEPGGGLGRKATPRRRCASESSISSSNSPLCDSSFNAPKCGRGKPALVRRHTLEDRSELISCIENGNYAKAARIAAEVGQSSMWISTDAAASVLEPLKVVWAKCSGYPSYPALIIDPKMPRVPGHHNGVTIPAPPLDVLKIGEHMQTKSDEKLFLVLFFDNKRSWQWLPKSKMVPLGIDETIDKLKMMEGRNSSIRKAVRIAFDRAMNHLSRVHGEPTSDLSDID

Chromatin remodeling regulator CECR2, sequence (Q9BXF3 whole entry): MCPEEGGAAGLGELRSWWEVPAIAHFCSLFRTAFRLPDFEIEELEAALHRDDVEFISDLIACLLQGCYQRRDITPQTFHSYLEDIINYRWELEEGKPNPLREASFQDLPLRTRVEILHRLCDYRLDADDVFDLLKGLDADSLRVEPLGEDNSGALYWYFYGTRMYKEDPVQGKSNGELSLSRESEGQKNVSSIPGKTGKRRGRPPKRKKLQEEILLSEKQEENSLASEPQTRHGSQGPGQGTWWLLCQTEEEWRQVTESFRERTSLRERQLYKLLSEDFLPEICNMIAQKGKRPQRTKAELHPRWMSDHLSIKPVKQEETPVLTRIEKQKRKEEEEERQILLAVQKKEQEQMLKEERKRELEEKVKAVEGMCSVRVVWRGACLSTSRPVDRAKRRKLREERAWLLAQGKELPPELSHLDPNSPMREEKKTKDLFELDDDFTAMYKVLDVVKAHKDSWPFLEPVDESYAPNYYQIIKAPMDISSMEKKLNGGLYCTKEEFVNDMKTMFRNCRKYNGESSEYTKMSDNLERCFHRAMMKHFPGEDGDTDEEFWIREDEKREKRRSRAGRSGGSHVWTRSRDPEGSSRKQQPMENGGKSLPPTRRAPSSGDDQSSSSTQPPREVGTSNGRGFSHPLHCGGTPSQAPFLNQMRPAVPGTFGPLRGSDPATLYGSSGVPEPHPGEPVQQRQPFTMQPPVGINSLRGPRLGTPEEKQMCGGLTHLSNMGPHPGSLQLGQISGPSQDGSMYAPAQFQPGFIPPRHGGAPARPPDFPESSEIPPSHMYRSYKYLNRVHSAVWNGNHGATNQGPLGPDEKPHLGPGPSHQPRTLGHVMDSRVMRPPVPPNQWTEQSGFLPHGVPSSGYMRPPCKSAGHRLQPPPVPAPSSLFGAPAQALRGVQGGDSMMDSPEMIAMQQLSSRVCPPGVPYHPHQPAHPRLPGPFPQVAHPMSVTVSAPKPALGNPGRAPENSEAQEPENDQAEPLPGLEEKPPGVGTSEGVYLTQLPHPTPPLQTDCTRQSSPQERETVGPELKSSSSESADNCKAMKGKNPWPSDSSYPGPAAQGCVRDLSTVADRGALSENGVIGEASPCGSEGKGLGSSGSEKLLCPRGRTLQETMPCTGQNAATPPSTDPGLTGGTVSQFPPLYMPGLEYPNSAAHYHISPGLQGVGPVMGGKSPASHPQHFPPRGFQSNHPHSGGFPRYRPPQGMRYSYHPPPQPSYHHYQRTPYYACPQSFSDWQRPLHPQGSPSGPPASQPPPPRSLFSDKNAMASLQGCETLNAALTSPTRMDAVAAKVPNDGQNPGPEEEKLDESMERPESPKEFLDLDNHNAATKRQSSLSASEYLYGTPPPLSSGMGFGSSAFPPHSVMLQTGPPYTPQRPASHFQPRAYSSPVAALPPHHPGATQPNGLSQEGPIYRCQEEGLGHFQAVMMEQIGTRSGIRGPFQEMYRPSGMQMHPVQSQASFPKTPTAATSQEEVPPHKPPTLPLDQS

IC50 [1]: 251 nM | IC50 [2]: 12600 nM | Kd [3]: 15.8 nM | Kd [4]: 126 nM
SMILES: C[C@H]1CCN(S(=O)(=O)c2cc(NC(=O)CN3C(=O)N[C@@](C)(C4CC4)C3=O)ccc2Br)C1
